“Also recorded” adds a separate entry of the source.
Tests used:
NOS = biological target: T1, NOS (Mus musculus, UniProt Q9Z0J4); experiment: NADPH-diaphorase enzyme histochemistry of NOS activity on muscle sections; format: in vivo, mice
T1 construct: confirmed using NADPH-diaphorase enzyme histochemistry on frozen sections; from tissue; host or cells: frozen sections of tibialis anterior muscle from normal mice pretreated ip with saline or L-NAME
Description: Sections ([…]) were collected on glass slides and stained with toluidine blue. The inhibition of NOS enzyme activity by L-NAME treatment 30 min. before crush was confirmed using NADPH-diaphorase enzyme histochemistry on frozen sections with jejunal epithelium as the positive control, according to Beesley (1995) Histochem. J. 27: 757–769.
i) satellite cells are identified and examined for hypertrophy and position using immunostaining for two c-met receptor, m-cadherin, neural cell adhesion molecule (N-CAM or leu19) and CD34, as markers of muscle satellite precursor cells (Irintchev A, Zeschnigk M. Starzinski-Powitz A, and Wernig A. (1994). Dev. […] In other sections c-met and HGF colocalization are used to assess activation (after (Tatsumi R, Anderson J E, Nevoret C J, Halevy 0, and Allen R E. (1998). Dev. Biol. 194:114–128). Routine fluorescent or peroxidase-conjugated secondary antibodies are used to visualize labelled satellite cells. • ii) NOS activity are determined to assess the effect of treatments that manipulate NOS activity. […] This method is modified to study homogenized tissue NOS activity. • iii) NOS expression is determined using in situ hybridisation (and Northern blotting) with a riboprobe specific for NOS-Iμ (the muscle isoform of NOS-I), made with custom primers (Kobzik L, Reid M B, Bredt D S, and Stamler J S. (1994). […]

satellite cells [1] = experiment: Satellite cell morphometry from electron micrographs 0 and 10 min after crush injury; format: in vivo, mice; conditions: L-NAME pretreatment
From the text: Measurements of cell area (size increases in activated cells), nucleus-to-cytoplasm ratio (a measure that decreases with activation), and cytoplasmic density (a measure that decreases in activation with the increase in cell size, despite the hypertrophy of cytoplasmic organelles) were made from electron micrographs without knowledge of their source. Two investigators had to agree on the satellite cell identification before cells were included in the study, with the stipulation that cell profiles had complete nuclei and cell membrane visible in a photograph or montage (all photographs taken at identical magnification of 10,000×) Satellite cells originated from the central crush-injured region of muscles collected from each mouse (n=4). Cytoplasmic density was determined as [the integrated cell density minus the integrated nuclear density] divided by [cell area minus nuclear area]. A computer was used to scan micrograph negatives, and digital images were analyzed using the program NIH Image for morphometry.

satellite cells [2] = experiment: Histology and immunostaining (m-cadherin, c-met, HGF/SF) of satellite cells 0 and 10 min after crush; format: in vivo, normal mice
Description: A separate experiment was conducted to study the immediate effects of injury on muscle and satellite cell histology. […] Muscles were bisected longitudinally, and half of each muscle was frozen in OCT. for cryosectioning. Sections were stained with H&E or immunostained using primary antibodies to c-met (1:400), HGF/SF (1:1000, R&D Systems) or developmental myosin heavy chain ([…], 1:250, Novocastra Laboratories) as reported ([…] et al. (1996) Exp. Cell Res. 22: 214-222; Tatsumi et al. (1998) Dev. Biol. 194: 114-128) or against m-cadherin (1:50, Santa Cruz). […] Sections and cultures were viewed on an Olympus microscope equipped with epifluorescence and phase contrast optics. […] In the case of muscle regenerating from crush injury, observations (without knowledge of treatment group) were made in pre-set fields of muscle from the central crush region, the adjacent regenerating region and the surviving region as reported (McIntosh et al. (1994) Muscle Nerve 17: 444-453). Representative photographs of muscle fibers and satellite cells were taken on over 700 frames of ASA 400 Fuji […] slide film. Where stated, the number of satellite cells observed in each category, group or condition was estimated from photographed slides rather than from direct counts made during observations under oil immersion. Selected slides were scanned (Olympus Film Scanner ES-10, Olympus Optical Co., Tokyo), formatted into plates with little or no enlargement and printed (Freehand 8.0, Macromedia Inc.).

satellite cells [3] = experiment: Cell yield time course 0–30 min after crush injury of right tibialis anterior, mdx mice; format: in vivo; conditions: L-NAME
[4] = Muscle weight to body weight (edema) and haemorrhage after crush injury, mdx mice; format: in vivo; conditions: L-NAME ip 30 min before crush
[5] = Muscle weight to body weight (edema) and haemorrhage after crush injury, normal mice; format: in vivo, normal mice (C57BL/6); conditions: ip treatment 30 min before crush; 0–30 min after injury

T1 sequence (Q9Z0J4 1-1463 isoform Q9Z0J4-5): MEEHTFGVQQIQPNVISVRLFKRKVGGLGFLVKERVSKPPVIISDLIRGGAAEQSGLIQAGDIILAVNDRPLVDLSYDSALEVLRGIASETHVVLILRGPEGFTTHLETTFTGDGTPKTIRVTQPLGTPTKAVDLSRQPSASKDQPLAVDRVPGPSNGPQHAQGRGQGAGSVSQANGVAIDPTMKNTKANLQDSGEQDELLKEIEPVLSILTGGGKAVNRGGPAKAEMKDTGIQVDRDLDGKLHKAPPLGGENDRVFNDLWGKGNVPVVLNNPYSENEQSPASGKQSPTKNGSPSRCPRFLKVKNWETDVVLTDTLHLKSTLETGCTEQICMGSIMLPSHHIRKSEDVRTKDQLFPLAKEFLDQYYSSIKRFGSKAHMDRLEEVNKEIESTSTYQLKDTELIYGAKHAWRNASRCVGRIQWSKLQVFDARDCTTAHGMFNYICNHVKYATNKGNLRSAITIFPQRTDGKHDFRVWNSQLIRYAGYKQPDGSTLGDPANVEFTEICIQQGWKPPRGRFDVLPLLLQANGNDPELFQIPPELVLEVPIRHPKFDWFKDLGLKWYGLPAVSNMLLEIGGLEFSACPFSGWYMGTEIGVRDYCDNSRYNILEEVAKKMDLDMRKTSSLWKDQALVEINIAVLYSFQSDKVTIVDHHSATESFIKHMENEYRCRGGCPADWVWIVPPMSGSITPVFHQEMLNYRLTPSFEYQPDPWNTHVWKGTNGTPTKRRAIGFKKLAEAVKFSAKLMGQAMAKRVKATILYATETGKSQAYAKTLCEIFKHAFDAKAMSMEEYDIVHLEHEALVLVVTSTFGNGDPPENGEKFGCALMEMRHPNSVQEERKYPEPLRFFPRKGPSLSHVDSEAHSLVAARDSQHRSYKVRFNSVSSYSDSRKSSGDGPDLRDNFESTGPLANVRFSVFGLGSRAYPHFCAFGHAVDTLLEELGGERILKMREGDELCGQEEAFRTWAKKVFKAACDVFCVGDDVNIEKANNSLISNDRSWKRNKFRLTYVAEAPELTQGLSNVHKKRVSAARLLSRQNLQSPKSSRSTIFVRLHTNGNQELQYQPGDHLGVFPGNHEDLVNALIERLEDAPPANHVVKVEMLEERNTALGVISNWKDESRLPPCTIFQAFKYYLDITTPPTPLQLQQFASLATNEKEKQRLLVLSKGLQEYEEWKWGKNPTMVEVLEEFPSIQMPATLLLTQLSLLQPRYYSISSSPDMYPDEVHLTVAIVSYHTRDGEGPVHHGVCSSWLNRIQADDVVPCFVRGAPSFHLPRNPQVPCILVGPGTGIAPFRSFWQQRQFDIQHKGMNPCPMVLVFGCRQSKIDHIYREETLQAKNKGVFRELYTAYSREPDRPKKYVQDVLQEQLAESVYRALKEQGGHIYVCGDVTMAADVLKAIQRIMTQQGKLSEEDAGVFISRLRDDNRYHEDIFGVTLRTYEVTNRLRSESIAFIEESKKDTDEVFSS

COC(=O)[C@@H](N)CCCNC(=N)N[N+](=O)[O-] [L-NAME, Nω-nitro-L-arginine methyl ester]
duration of decreased NOS activity (NOS; L-NAME, after ip injection): 40 min
NOS activity by NADPH-diaphorase staining (NOS; pre-treatment with L-NAME, muscle sections): inhibited NOS activity
cell area (satellite cells [1]; 0 minutes post-crush, n = 8): 9.0 ± 1.6 arbitrary units
cytoplasmic density (satellite cells [1]; 0 minutes post-crush, n = 8): 91.7 ± 5.8 arbitrary units
nucleus:cytoplasm ratio (satellite cells [1]; 0 minutes post-crush, n = 8): 70.2 ± 1.7%
satellite cell activation state by morphologic criteria (satellite cells [1]; 0–10 minutes post-crush): maintained quiescence over 10 minutes
cell area (satellite cells [1]; 10 minutes post-crush, n = 3): 6.3 ± 1.1 arbitrary units
cytoplasmic density (satellite cells [1]; 10 minutes post-crush, n = 3): 66.2 ± 2.1 arbitrary units
nucleus:cytoplasm ratio (satellite cells [1]; 10 minutes post-crush, n = 3): 52.0 ± 8.7 %
normal rapid changes in satellite cell size and position (satellite cells [2]; L-NAME treatment 30 min before crush): consistently delayed and restricted
satellite cells thin and attenuated in both RTA and LTA (satellite cells [2]; L-NAME-treated mice, 0 min, more than 70 satellite cells identified): 85%
satellite cells with c-met and HGF/SF co-localized (satellite cells [2]; L-NAME-treated mice, 10 min after injury): at least 70%
increase of LTA cell yield at 10 min (satellite cells [3]): 50%
RSOL cell yield (satellite cells [3]; 0–30 min): did not change over time
RTA cell yield time course (satellite cells [3]; 0–30 min): rose slowly over the 30 min. time course; also recorded: decreased and further delayed the peak of myogenic cells; also recorded: prevented the increased RTA yield at 10 min
increase in RTA weight after injury [4]: abolished the increase in RTA weight for 30 min
muscle weight profile (RTA relative to LTA; muscle weight as proportion of body weight) [5]: RTA weight increased only at 10 min. relative to LTA
